Data published in US20120010272A1, “RNA Interference Mediated Inhibition of Apoptosis Signal-Regulating Kinase 1 (ASK1) Gene Expression Using Short Interfering Nucleic Acid (siNA)” (Merck Sharp & Dohme Corp., priority 2009, published 2012).
[invAb] = inverted abasic unit; m = 2'-O-methyl; r = 2'-OH (RNA); f = 2'-fluoro

Assays:
[1] = tested on: ASK1 mRNA; experiment: ASK1 mRNA knock-down by siNA in human A549 cells (RNAiMax transfection, Taqman RT-PCR); format: cell-based; details: 10 nM siNA, 24 hrs post-transfection, vs non-targeting control, GAPDH-normalized, mean ± S.D., two experiments
Protocol: A549 (human; ATCC cat #CCL-185): Cells were cultured at 37° C. in the presence of 5% CO2 and grown in Ham's F12K medium with 2 mM L-glutamine adjusted to contain 1.5 g/L sodium bicarbonate and supplemented with fetal bovine serum at a final concentration of 10%, 100 μg/mL of streptomycin, and 100 U/mL penicillin.
(§1) Cells were plated in all wells of a tissue-culture treated, 96-well plate at a final count of 5000 cells/well (A549 cell line) and 3,500 cells/well (Hepal-6 cell line) in 100 μL of the appropriate culture media. The cells were cultured for 24 hours after plating at 37° C. in the presence of 5% CO2.
(§2) After 24 hours, complexes containing siNA and RNAiMax were created as follows: A solution of RNAiMax diluted 33-fold in OPTI-MEM was prepared. In parallel, solutions of the siNAs for testing were prepared to a final concentration of 120 nM in OPTI-MEM. After incubation of RNAiMax/OPTI-MEM solution at room temperature for 5 min, an equal volume of the siRNA solution and the RNAiMax solution were added together for each of the siNAs.
(§3) This solution was incubated at room temperature for 20 minutes. After incubation, 20 uL of the solution was added to each of the relevant wells. The final concentration of siNA in each well was 10 nM and the final volume of RNAiMax in each well was 0.3 ul.
(§4) The time of incubation with the RNAiMax-siNA complexes was 24 hours and there was no change in media between transfection and harvesting, unless otherwise indicated.
(§5) RNA was extracted from a 96-well plate using the TaqMan® Gene Expression Cells-to-CT™ Kit (Cat #4399002) with a modified protocol. Briefly, a 60 uL (1 plate) or 110 uL (2 plates) of the Lysis Solution with DNase I was dispensed into each well of the Lysis Buffer Plate (twin.tec full skirt plate). The lysis buffer and stop plates were stored at 4° C. until the cells were washed.
(§6) The plate was spun at 1100 rpm for 5 minutes. The culture medium was aspirated and discarded from the wells of the culture plate. The lysis was performed automatically using a BioMek FX instrument and method. After the Biomek method was completed, the lysis plate was incubated for 2 min. at room temperature. The lysis plate can be stored for 2 hours at 4° C., or at −20° C. or −80° C. for two months.
(§7) Each well of the reverse transcription plate required 10 uL of 2× reverse transcriptase Buffer, 1 uL of 20× reverse transcription enzyme and 2 uL of nuclease-free water. The reverse transcription master mix was prepared by mixing 2× reverse transcription buffer, 20× reverse transcription enzyme mix, and nuclease-free water. 13 uL of the reverse transcription master mix was dispensed into each well of the reverse transcription plate (semi-skirted). A separate reverse transcription plate was prepared for each cell plate. The plate was loaded onto a Biomek NX or Biomek FX Dual-96 and the Biomek method was run. The program is programmed to automatically added 7 uL of lysate from the cell lysis procedure described above into each well of the reverse transcription plate. The plate is sealed and spun on a centrifuge (1000 rpm for 30 seconds) to settle the contents to the bottom of the reverse transcription plate. The plate is placed in a thermocycler at 37° C. for 60 min, 95° C. for 5 min, and 4° C. until the plate is removed from the thermocycler. Upon removal, if not used immediately, the plate was frozen at −20° C.
(§8) A series of probes and primers were used to detect the various mRNA transcripts of the genes of ASK1, ASK2, and GAPDH in human cell lines and ASK1 and GAPDH in mouse cell lines. All Taqman probes and primers for the experiments were supplied as pre-validated sets by ABI (see Table 2).
(§9) The assays were performed on an ABI 7900 instrument, according to the manufacturer's instructions. A TaqMan Gene Expression Master Mix (provided in the Cells-to-CT™, Applied Biosystems, Cat #4399002) was used. […]

[2] = tested on: ASK1 mRNA; experiment: ASK1 mRNA knock-down by siNA in mouse Hepa1-6 cells (RNAiMax transfection, Taqman RT-PCR); format: cell-based; details: 10 nM siNA, 24 hrs post-transfection, vs non-targeting control, GAPDH-normalized, mean ± S.D., two experiments
Protocol: Hepal-6 (murine; ATCC cat #CRL-1830): Cells were cultured at 37° C. in the presence of 5% CO2 and grown in Dulbecco's modified Eagle's medium (DMEM) with 4 mM L-glutamine adjusted to contain 1.5 g/L sodium bicarbonate and 4.5 g/L glucose and supplemented with 10% of fetal bovine serum, 100 μg/mL of streptomycin, and 100 U/mL penicillin.
as §1, §2, §3, §4, §5, §6, §7, §8, §9

Row | Substance | % KD Human [1] [%] | % KD Mouse [2] [%]
1 | 25395-DC: siNA duplex, sense B cuGAuGAcAAGAAAGGuAu TTB, antisense AUAccuuucuuGucAucAGUU (SEQ ID NO: 71/72), human ASK1 target site 2139 (sense CUGAUGACAAGAAAGGUAUTT; antisense AUACCUUUCUUGUCAUCAGUU; chemistry not fully specified) | 32 ± 12 | 6 ± 15
2 | 25396-DC: siNA duplex, sense B cAAGcAAAAAGAAAAAGAc TTB, antisense GUCuuuuucuuuuuGcuuGUU (SEQ ID NO: 73/74), human ASK1 target site 3183 (sense CAAGCAAAAAGAAAAAGACTT; antisense GUCUUUUUCUUUUUGCUUGUU; chemistry not fully specified) | 90 ± 1 | 75 ± 1
3 | 25397-DC: siNA duplex, sense B AGccAGuAcuuccGGGAAu TTB, antisense AUUcccGGAAGuAcuGGcuUU (SEQ ID NO: 75/76), human ASK1 target site 1166 (sense AGCCAGUACUUCCGGGAAUTT; antisense AUUCCCGGAAGUACUGGCUUU; chemistry not fully specified) | 60 ± 0 | 78 ± 7
4 | 25398-DC: siNA duplex, sense B GuGAcAGcAGcuucAuGAA TTB, antisense UUCAuGAAGcuGcuGucAcUU (SEQ ID NO: 77/78), human ASK1 target site 1038 (sense GUGACAGCAGCUUCAUGAATT; antisense UUCAUGAAGCUGCUGUCACUU; sense: DNA at AGT, 2'-fluoro at CU, [invAb] at 5' end, 3' end, backbone not given here; antisense: sugars from the 5' end rrrmfmmmmffmffmffmfmm, backbone not given here) | 38 ± 6 | 51 ± 2
5 | 25400-DC: siNA duplex, sense B ccAcuGAccGAAAAAucAu TTB, antisense AUGAuuuuucGGucAGuGGUU (SEQ ID NO: 81/82), human ASK1 target site 3660 (sense CCACUGACCGAAAAAUCAUTT; antisense AUGAUUUUUCGGUCAGUGGUU; chemistry not fully specified) | 86 ± 4 | 74 ± 1
6 | 25401-DC: siNA duplex, sense B uccuGGucGAGGccAcAAA TTB, antisense UUUGuGGccucGAccAGGAUU (SEQ ID NO: 83/84), human ASK1 target site 1995 (sense UCCUGGUCGAGGCCACAAATT; antisense UUUGUGGCCUCGACCAGGAUU; sense: DNA at AGT, 2'-fluoro at CU, [invAb] at 5' end, 3' end, backbone not given here; antisense: sugars from the 5' end rrrmfmmffffmmffmmmmmm, backbone not given here) | 10 ± 16 | 21 ± 0
